Laboratory results taken from US8003649B2 (AstraZeneca AB, priority 2007, dated 2011).

The compounds below were run against T1, Androgen Receptor (AR) (Homo sapiens, UniProt P10275, T878A) (assay: LNCaP Androgen Receptor Down-regulation Cell Assay (immunofluorescence end point)). Settings: LNCaP prostate carcinoma cells, compound incubation 20-22 hours, 50% reduction of the AR signal; read-out: Androgen Receptor Down-regulation Assay (a) IC50/μM.
T1 construct: cell based immuno-fluorescence assay using the LNCaP prostate epithelial cell line; endogenous in cells; host or cells: LNCaP clone FGC (ATCC CRL-1740)
T1 sequence (P10275 1-920 T878A): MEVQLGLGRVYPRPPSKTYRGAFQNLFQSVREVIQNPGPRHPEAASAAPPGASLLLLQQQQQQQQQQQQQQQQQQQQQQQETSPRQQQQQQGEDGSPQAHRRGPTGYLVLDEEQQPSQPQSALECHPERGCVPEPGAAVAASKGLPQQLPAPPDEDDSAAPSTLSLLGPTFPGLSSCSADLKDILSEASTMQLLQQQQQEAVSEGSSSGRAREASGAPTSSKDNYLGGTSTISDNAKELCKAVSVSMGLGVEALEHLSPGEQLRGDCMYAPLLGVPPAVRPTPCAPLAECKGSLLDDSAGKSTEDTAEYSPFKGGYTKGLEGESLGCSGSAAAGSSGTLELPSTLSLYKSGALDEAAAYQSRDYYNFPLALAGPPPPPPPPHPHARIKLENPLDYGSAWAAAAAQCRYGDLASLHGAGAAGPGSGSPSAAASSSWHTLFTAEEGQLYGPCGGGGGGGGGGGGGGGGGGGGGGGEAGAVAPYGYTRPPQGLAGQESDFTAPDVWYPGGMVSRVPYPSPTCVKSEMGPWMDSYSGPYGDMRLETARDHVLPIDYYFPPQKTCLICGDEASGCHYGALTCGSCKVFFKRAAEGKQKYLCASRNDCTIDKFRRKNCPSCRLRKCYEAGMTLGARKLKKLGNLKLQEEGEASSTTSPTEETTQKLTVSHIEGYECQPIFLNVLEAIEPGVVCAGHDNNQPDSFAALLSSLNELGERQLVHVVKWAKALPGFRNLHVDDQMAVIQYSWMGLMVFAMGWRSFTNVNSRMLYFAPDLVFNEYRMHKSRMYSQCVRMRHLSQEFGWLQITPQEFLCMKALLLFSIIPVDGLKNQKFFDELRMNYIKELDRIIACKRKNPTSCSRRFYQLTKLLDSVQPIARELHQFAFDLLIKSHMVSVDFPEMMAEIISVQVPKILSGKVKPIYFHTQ
Type: cell-based
Procedure, shortened: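 LNCaP cells in medium with 5% charcoal-stripped FBS were plated overnight, then treated with a compound dilution series for 20-22 h at 37° C. After fixation, permeabilisation and immunostaining, AR-associated green fluorescence was quantified by laser-scanning microplate cytometry; AR down-regulation expressed as IC50 from fitted dose-response curves.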

Point of comparison: `Cn1nccc1COc1ccc(C2CCN(c3ccc4nnc(C(F)(F)F)n4n3)CC2)cc1` [Example 736], DC50 0.4 µM. Against it:
- N#Cc1ccccc1CN1CCN(c2ccc3nnc(C(F)(F)F)n3n2)CC1 [Example 59, 2-[[4-[3-(trifluoromethyl)-[1,2,4]triazolo[4,3-b]pyridazin-6-yl]piperazin-1-yl]methyl]benzonitrile] — 6.8-fold higher, 2.7 µM
- OC1(c2cccc(F)c2)CCN(c2ccc3nnc(C(F)(F)F)n3n2)CC1 [Example 310, 4-(3-fluorophenyl)-1-[3-(trifluoromethyl)[1,2,4]triazolo[4,3-b]pyridazin-6-yl]piperidin-4-ol] — 8-fold higher, 3.2 µM
- O=[N+]([O-])c1ccc(N2CCN(c3ccc4nnc(C(F)(F)F)n4n3)CC2)cc1 [Example 21, 6-[4-(4-nitrophenyl)piperazin-1-yl]-3-(trifluoromethyl)-[1,2,4]triazolo[4,3-b]pyridazine] — within 1.5-fold, 0.27 µM
- CC(C)Oc1ccc(CN2CCN(c3ccc4nnc(C(F)(F)F)n4n3)CC2)cn1 [Example 148, 6-[4-[(6-propan-2-yloxypyridin-3-yl)methyl]piperazin-1-yl]-3-(trifluoromethyl)-[1,2,4]triazolo[4,3-b]pyridazine] — 8.5-fold higher, 3.4 µM
- COc1ccc(CN2CCN(c3ccc4nnc(C(F)(F)F)n4n3)CC2)cc1F [Example 388] — 4-fold higher, 1.6 µM
- CS(=O)(=O)c1cccc(CN2CCCN(c3ccc4nnc(C(F)(F)F)n4n3)CC2)c1 [Example 165, 6-[4-[(3-methylsulfonylphenyl)methyl]-1,4-diazepan-1-yl]-3-(trifluoromethyl)-[1,2,4]triazolo[4,3-b]pyridazine] — 4.2-fold higher, 1.7 µM
- CC(=O)Nc1cccc(C2CCN(c3ccc4nnc(C(F)(F)F)n4n3)CC2)c1 [Example 655, N-[3-[1-[3-(trifluoromethyl)[1,2,4]triazolo[4,3-b]pyridazin-6-yl]piperidin-4-yl]phenyl]acetamide] — 2.8-fold higher, 1.1 µM
- Cn1nccc1COc1ccc(OC2CCN(c3ccc4nnc(C(F)(F)F)n4n3)CC2)cc1 [Example 442] — within 1.5-fold, 0.44 µM
- Cc1ccnc(OC2CCN(c3ccc4nnc(C(F)(F)F)n4n3)CC2)n1 [Example 622] — 18-fold higher, 7.4 µM
- O=C(CN1CCOCC1)Nc1ccc(C2CCN(c3ccc4nnc(C(F)(F)F)n4n3)CC2)cc1 [Example 710] — 5.2-fold higher, 2.1 µM
- FC(F)(Cl)c1nnc2ccc(N3CCN(Cc4ccc(Br)cc4)CC3)nn12 [Example 348] — 2.5-fold higher, 1 µM
- CNC(=O)c1cccc(C2CCN(c3ccc4nnc(C(F)(F)F)n4n3)CC2)c1 [Example 649] — 5.7-fold higher, 2.3 µM
- C[C@@H]1CN(c2ccc3nnc(C(F)(F)F)n3n2)CCN1Cc1ccc(F)c(C#N)c1 [Example 569] — 6.8-fold higher, 2.7 µM
- FC(F)(F)c1nnc2ccc(N3CCN(Cc4ccc(Oc5ccccc5)nc4)CC3)nn12 [Example 144, 6-[4-[(6-phenoxypyridin-3-yl)methyl]piperazin-1-yl]-3-(trifluoromethyl)-[1,2,4]triazolo[4,3-b]pyridazine] — 12-fold higher, 4.9 µM
- FC(F)(F)Sc1cccc(CN2CCN(c3ccc4nnc(C(F)(F)F)n4n3)CC2)c1 [Example 116, 3-(trifluoromethyl)-6-[4-[[3-(trifluoromethylsulfanyl)phenyl]methyl]piperazin-1-yl]-[1,2,4]triazolo[4,3-b]pyridazine] — 2.8-fold higher, 1.1 µM
- Fc1cccc(CN2CCN(c3ccc4nnc(C(F)(F)F)n4n3)CC2)c1F [Example 381] — 5.2-fold higher, 2.1 µM
- FC(F)(F)c1nnc2ccc(N3CCN(Cc4ccccc4Cl)CC3)nn12 [Example 62, 6-[4-[(2-chlorophenyl)methyl]piperazin-1-yl]-3-(trifluoromethyl)-[1,2,4]triazolo[4,3-b]pyridazine] — 1.8-fold higher, 0.72 µM
- COc1ccc2[nH]cc(C3CCN(c4ccc5nnc(C(F)(F)F)n5n4)CC3)c2c1 [Example 494, 6-[4-(5-methoxy-1H-indol-3-yl)piperidin-1-yl]-3-(trifluoromethyl)[1,2,4]triazolo[4,3-b]pyridazine] — within 1.5-fold, 0.43 µM
- FC(F)(F)c1nnc2ccc(N3CC4CN(Cc5cccnc5Cl)CC4C3)nn12 (stereo not shown) [Example 790] — 5-fold higher, 2 µM
- C[C@@H]1CN(Cc2ccc(F)cc2)CCN1c1ccc2nnc(C(F)(F)F)n2n1 [Example 603] — 8.8-fold higher, 3.5 µM
- Cn1cncc1CN1CCN(c2ccc3nnc(C(F)(F)F)n3n2)CC1 [Example 89, 6-[4-[(3-methylimidazol-4-yl)methyl]piperazin-1-yl]-3-(trifluoromethyl)-[1,2,4]triazolo[4,3-b]pyridazine] — 58-fold higher, 23 µM
- CN(CCO)C(=O)c1cccc(C2CCN(c3ccc4nnc(C(F)(F)F)n4n3)CC2)c1 [Example 643] — 15-fold higher, 6 µM
- FC(F)(F)c1nnc2ccc(N3CCC(Oc4ccncc4)CC3)nn12 [Example 545] — 9-fold higher, 3.6 µM
- FC(F)Oc1ccc(CN2CCN(c3ccc4nnc(C(F)(F)F)n4n3)CC2)cc1 [Example 161, 6-[4-[[4-(difluoromethoxy)phenyl]methyl]piperazin-1-yl]-3-(trifluoromethyl)-[1,2,4]triazolo[4,3-b]pyridazine] — 3.5-fold higher, 1.4 µM
- N#Cc1ccccc1OCC1CCN(c2ccc3nnc(C(F)(F)F)n3n2)CC1 [Example 469] — 4.5-fold higher, 1.8 µM
- FC(F)(F)c1nnc2ccc(N3CCC(Oc4ccc(Cl)nc4)CC3)nn12 [Example 720] — 6.8-fold higher, 2.7 µM
- COCCN(C)C(=O)c1ccc(C2CCN(c3ccc4nnc(C(F)(F)F)n4n3)CC2)cc1 [Example 512, N-(2-methoxyethyl)-N-methyl-4-[1-[3-(trifluoromethyl)[1,2,4]triazolo[4,3-b]pyridazin-6-yl]piperidin-4-yl]benzamide] — 2.2-fold higher, 0.87 µM
- FC(F)(F)c1nnc2ccc(N3CCC(COC4CCOCC4)CC3)nn12 [Example 294, 6-[4-[(tetrahydro-2H-pyran-4-yloxy)methyl]piperidin-1-yl]-3-(trifluoromethyl)[1,2,4]triazolo[4,3-b]pyridazine] — 24-fold higher, 9.5 µM
- Fc1ccc(-c2nc(C3CCN(c4ccc5nnc(C(F)(F)F)n5n4)CC3)no2)cc1 [Example 300] — 2.5-fold higher, 1 µM
- CC(C)Cc1ccc(CN2CCN(c3ccc4nnc(C(F)(F)F)n4n3)CC2)cc1 [Example 123, 6-[4-[[4-(2-methylpropyl)phenyl]methyl]piperazin-1-yl]-3-(trifluoromethyl)-[1,2,4]triazolo[4,3-b]pyridazine] — 10-fold higher, 4.1 µM
- CN(C)CCCOc1ccc(OC2CCN(c3ccc4nnc(C(F)(F)F)n4n3)CC2)cc1 [Example 430, N,N-dimethyl-3-[4-[[1-[3-(trifluoromethyl)-[1,2,4]triazolo[4,3-b]pyridazin-6-yl]piperidin-4-yl]oxy]phenoxy]propan-1-amine] — 4.2-fold higher, 1.7 µM
- FC(F)(F)c1nnc2ccc(N3CC4CN(Cc5ccccc5)CC4C3)nn12 (stereo not shown) [Example 210, 6-(5-benzyl-1,3,3a,4,6,6a-hexahydropyrrolo[3,4-c]pyrrol-2-yl)-3-(trifluoromethyl)-[1,2,4]triazolo[3,4-f]pyridazine] — 4.5-fold higher, 1.8 µM
- FC(F)(F)c1nnc2ccc(N3CCN(CCc4ccccc4Cl)CC3)nn12 [Example 232] — 9-fold higher, 3.6 µM
- FC(F)(F)c1ccccc1CN1CCN(c2ccc3nnc(C(F)(F)F)n3n2)CC1 [Example 67, 3-(trifluoromethyl)-6-[4-[[2-(trifluoromethyl)phenyl]methyl]piperazin-1-yl]-[1,2,4]triazolo[4,3-b]pyridazine] — 2.5-fold higher, 1 µM
- COc1ccc(S(=O)(=O)N2CCN(c3ccc4nnc(C(F)(F)F)n4n3)CC2)c(OC)c1 [Example 404] — 6.8-fold higher, 2.7 µM
- O=C(c1ccc2[nH]cc(C3CCN(c4ccc5nnc(C(F)(F)F)n5n4)CC3)c2c1)N1CC[C@H](O)C1 [Example 505] — higher, > 19 µM
